Test results reported in PMC3047498 (Journal of andrology, 2010).

Experiments:
[1] = test system: endogenous testosterone production; assay: Suppression of endogenous testosterone production by acyline; assay type: in vivo, men; details: 300 µg/kg acyline; for Serum testosterone concentration 24 hours after acyline administration: before oral testosterone
[2] = test system: endogenous testosterone production; details: 300 µg/kg acyline, normal healthy men; ref Herbst et al, 2004; cited from earlier work
[3] = testosterone plus finasteride group

## acyline
[1]; [3]
  Serum DHT concentration 24 hours after the acyline injection: 0.54 ± 0.32 nmol/L
  Serum testosterone concentration 24 hours after acyline administration: 2.3 ± 1.4 nmol/L
[1]; testosterone-only group
  Serum DHT concentration 24 hours after the acyline injection: 0.6 ± 0.32 nmol/L
  Serum testosterone concentration 24 hours after acyline administration: 2.0 ± 1.3 nmol/L
[2]
  Duration of testosterone suppression: 2 weeks
  Time to suppress testosterone to castrate levels: ≤ 24 h
